Measured values: patent US6972296B2, “Carboxylic acid derivatives that inhibit the binding of integrins to their receptors” (Encysive Pharmaceuticals Inc., priority 1999, dated 2005)

Columns and labels:
[1] = target: T1, α4β1 integrin (Homo sapiens, UniProt P05556+P13612); assay: Adhesion of calcein-labeled Ramos cells to CS1 (fibronectin) peptide conjugated ovalbumin; format: cell-based; settings: Ramos cell adhesion to CS1 conjugated ovalbumin, 30 minutes at 37° C.
T1 construct: endogenous in cells; host or cells: Ramos cells
In short: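 Calcein AM-labelled Ramos cells (2.5×10^5/well) with compound, up to 100 μM, added to plates coated with CS1 peptide–ovalbumin (0.5 μg/ml) and blocked with 3% BSA. Binding buffer TBS pH 7.5 with 1 mM each MgCl2, CaCl2, MnCl2; 30 min, 37 °C. After washes, adherent cells lysed and read fluorometrically; […].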

T1 sequence (P13612 34-1032): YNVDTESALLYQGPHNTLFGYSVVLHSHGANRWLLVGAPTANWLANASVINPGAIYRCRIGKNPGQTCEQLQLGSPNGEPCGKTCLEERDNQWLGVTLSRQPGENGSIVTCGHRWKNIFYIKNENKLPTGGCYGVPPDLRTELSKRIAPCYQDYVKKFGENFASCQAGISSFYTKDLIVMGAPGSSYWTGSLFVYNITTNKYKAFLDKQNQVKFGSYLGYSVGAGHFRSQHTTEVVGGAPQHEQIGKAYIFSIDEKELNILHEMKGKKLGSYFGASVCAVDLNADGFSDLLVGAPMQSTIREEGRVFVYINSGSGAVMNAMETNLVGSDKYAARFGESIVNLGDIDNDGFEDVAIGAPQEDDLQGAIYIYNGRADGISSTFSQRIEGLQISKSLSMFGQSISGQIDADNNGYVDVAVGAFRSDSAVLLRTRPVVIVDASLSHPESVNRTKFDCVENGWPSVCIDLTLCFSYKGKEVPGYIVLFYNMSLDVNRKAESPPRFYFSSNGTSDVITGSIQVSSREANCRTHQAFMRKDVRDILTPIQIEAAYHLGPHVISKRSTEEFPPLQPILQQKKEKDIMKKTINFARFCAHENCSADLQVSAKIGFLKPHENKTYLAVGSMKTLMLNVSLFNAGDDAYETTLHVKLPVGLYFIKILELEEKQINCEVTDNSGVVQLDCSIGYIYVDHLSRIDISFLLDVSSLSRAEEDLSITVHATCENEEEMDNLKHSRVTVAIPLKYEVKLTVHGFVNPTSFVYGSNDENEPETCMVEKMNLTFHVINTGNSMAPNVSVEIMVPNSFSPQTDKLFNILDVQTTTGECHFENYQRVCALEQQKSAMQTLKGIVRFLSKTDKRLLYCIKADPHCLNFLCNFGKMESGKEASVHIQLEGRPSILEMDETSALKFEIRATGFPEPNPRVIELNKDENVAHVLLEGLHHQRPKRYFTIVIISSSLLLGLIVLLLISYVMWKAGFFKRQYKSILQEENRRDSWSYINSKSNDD
T1 sequence (P05556 21-798): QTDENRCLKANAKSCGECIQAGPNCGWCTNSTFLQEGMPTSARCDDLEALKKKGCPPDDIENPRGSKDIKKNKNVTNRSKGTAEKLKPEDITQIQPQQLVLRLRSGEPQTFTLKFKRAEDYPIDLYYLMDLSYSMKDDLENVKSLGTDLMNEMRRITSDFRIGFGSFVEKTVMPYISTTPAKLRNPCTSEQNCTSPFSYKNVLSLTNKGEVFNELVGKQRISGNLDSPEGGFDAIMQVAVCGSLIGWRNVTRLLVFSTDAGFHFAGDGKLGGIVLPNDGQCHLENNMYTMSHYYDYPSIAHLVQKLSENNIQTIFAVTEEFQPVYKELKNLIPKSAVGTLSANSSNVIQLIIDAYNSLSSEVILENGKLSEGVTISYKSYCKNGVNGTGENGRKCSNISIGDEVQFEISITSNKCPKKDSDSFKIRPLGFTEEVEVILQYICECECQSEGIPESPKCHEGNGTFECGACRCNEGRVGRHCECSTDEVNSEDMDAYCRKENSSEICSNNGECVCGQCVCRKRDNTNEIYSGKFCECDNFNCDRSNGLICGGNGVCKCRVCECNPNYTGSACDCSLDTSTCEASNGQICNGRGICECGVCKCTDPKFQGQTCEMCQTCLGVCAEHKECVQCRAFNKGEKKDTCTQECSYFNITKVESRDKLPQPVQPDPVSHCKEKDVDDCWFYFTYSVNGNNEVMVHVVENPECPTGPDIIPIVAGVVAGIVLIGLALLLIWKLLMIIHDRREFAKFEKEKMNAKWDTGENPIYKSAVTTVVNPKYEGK

| SMILES | IC50 ([1]; Table 3) [nM] | melting point [°C] | IC50 ([1]; Table 4) [nM] |
| --- | --- | --- | --- |
| Cc1ccc([C@H](CC(=O)O)NC(=O)Nc2c(O)ccn(Cc3ccccc3Cl)c2=O)cc1 [(3S)-3-{[({1-[(2-chlorophenyl)methyl]-4-hydroxy-2-oxo-1,2-dihydro-3-pyridinyl}amino)carbonyl]amino}-3-(4-methylphenyl)propanoic acid] | 10 | 113 to 115 | – |
| CCCCN(C(=O)N[C@@H](CC(=O)O)c1ccc2c(c1)OCO2)C1CC(=O)N(Cc2ccccc2)C1=O (stereo partly drawn) [(3S)-3-(1,3-benzodioxol-5-yl)-3-[({butyl[2,5-dioxo-1-(phenylmethyl)tetrahydro-1H-pyrrol-3-yl]amino}carbonyl)amino]propanoic acid] | – | 80 to 85 | 70000 |
| CCNC(=O)N(CC)C(=O)Nc1ccn(Cc2ccccc2Cl)c(=O)c1NC(=O)N[C@@H](CC(=O)O)c1ccc(C)cc1 [(3S)-3-{[({1-[(2-chlorophenyl)methyl]-4-[({ethyl[(ethylamino)carbonyl]amino}carbonyl)amino]-2-oxo-1,2-dihydro-3-pyridinyl}amino)carbonyl]amino}-3-(4-methylphenyl)propanoic acid] | 2 | 128 to 130 | – |
| Cc1ccc([C@H](CC(=O)O)NC(=O)Nc2c(OCc3ccccc3)cc(C)n(Cc3ccccc3)c2=O)cc1 [(3S)-3-{[({6-methyl-2-oxo-1-(phenylmethyl)-4-[(phenylmethyl)oxy]-1,2-dihydro-3-pyridinyl}amino)carbonyl]amino}-3-(4-methylphenyl)propanoic acid] | 5 | 124 to 126 | – |
